Where “and” joins values, the source holds several entries; their conditions need not be identical. Identical values can stand only once. Inconclusive results and toxic doses are left out. Rule for the calls: active = survival T/C of 150% or more; inactive = T/C below 125% in these data.
System: P388 leukemia ip, CD2F1 mice, survival T/C
Experiment: NCI In Vivo Anticancer Drug Screen. Data for tumor model P388 Leukemia (intraperitoneal) in CD2F1 (CDF1) mice
Details: endpoint: median survival time, higher = longer survival
Method in brief: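 Mice carrying the transplanted tumor received test compound or vehicle. Survival was recorded in each group, and the value is the treated-group measurement divided by that of the vehicle-treated control group.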

[1] = dose: 200.0 mg/kg/injection, schedule: Q04DX003 (ip), vehicle: saline with Tween-80
[2] = dose: 25.0 mg/kg/injection, schedule: Q01DX009 (ip), vehicle: saline with Tween-80
[3] = dose: 50.0 mg/kg/injection, schedule: Q01DX009 (ip), vehicle: saline with Tween-80
[4] = dose: 100.0 mg/kg/injection, schedule: Q04DX003 (ip), vehicle: saline
[5] = dose: 200.0 mg/kg/injection, schedule: Q04DX003 (ip), vehicle: saline
[6] = dose: 400.0 mg/kg/injection, schedule: Q04DX003 (ip), vehicle: saline
[7] = dose: 60.0 mg/kg/injection, schedule: Q01DX005 (ip), vehicle: Klucel (hydroxypropylcellulose) (HPC)
[8] = dose: 50.0 mg/kg/injection, schedule: Q01DX009 (ip), vehicle: Klucel (hydroxypropylcellulose) (HPC)
[9] = dose: 100.0 mg/kg/injection, schedule: Q01DX009 (ip), vehicle: Klucel (hydroxypropylcellulose) (HPC)
[10] = dose: 200.0 mg/kg/injection, schedule: Q01DX009 (ip), vehicle: Klucel (hydroxypropylcellulose) (HPC)
[11] = dose: 100.0 mg/kg/injection, schedule: Q01DX009 (ip), vehicle: saline with Tween-80
[12] = dose: 200.0 mg/kg/injection, schedule: Q01DX009 (ip), vehicle: saline with Tween-80
[13] = dose: 100.0 mg/kg/injection, schedule: Q01DX009 (ip), vehicle: saline
[14] = dose: 200.0 mg/kg/injection, schedule: Q01DX009 (ip), vehicle: saline

Measured: T/C

C[n+]1c(-c2ccc(/C=N/Nc3n[nH]c(=S)n3/N=C/c3ccc(-c4cn5ccsc5[n+]4C)cc3)cc2)cn2ccsc21
inactive: dose: 1.87 mg/kg/injection, schedule: Q01DX005 (ip), vehicle: saline with Tween-80 101 % of control

CSC1(CCC#N)C(=O)Nc2ccccc21 (centres undefined)
inactive: [1] 102 % of control | dose: 400.0 mg/kg/injection, schedule: Q04DX003 (ip), vehicle: saline with Tween-80 108 % of control

COc1ccc(/C=C/c2ccc3ccccc3[n+]2C)c(OC)c1OC
inactive: dose: 0.63 mg/kg/injection, schedule: Q01DX009 (ip), vehicle: Klucel (hydroxypropylcellulose) (HPC) 107 % of control | dose: 1.25 mg/kg/injection, schedule: Q01DX009 (ip), vehicle: Klucel (hydroxypropylcellulose) (HPC) 110 % of control | dose: 5.0 mg/kg/injection, schedule: Q01DX009 (ip), vehicle: Klucel (hydroxypropylcellulose) (HPC) 107 % of control

CC(=O)OC1OC(COS(=O)(=O)c2ccc(C)cc2)C(OC(C)=O)C(OC(C)=O)C1OC(C)=O (centres undefined)
inactive: dose: 12.5 mg/kg/injection, schedule: Q01DX009 (ip), vehicle: other 93 % of control | dose: 25.0 mg/kg/injection, schedule: Q01DX009 (ip), vehicle: other 90 % of control | dose: 100.0 mg/kg/injection, schedule: Q01DX009 (ip), vehicle: other 87 % of control | dose: 200.0 mg/kg/injection, schedule: Q01DX009 (ip), vehicle: other 92 % of control

CC1C2c3ccccc3C(c3ccccc32)C1CN1C(CCO)COC1c1ccccc1 (centres undefined)
inactive: dose: 60.0 mg/kg/injection, schedule: Q01DX005 (ip), vehicle: saline with Tween-80 92 % of control | dose: 120.0 mg/kg/injection, schedule: Q01DX005 (ip), vehicle: saline with Tween-80 87 % of control | dose: 240.0 mg/kg/injection, schedule: Q01DX005 (ip), vehicle: saline with Tween-80 90 % of control

CCCCC(=O)NN
inactive: dose: 12.5 mg/kg/injection, schedule: Q01DX009 (ip), vehicle: saline with Tween-80 96 % of control | [2] 102 % of control | [3] 102 % of control

CN(C)C(=O)c1cc(C(=O)N(C)C)cc2cccc-2c1
inactive: dose: 25.0 mg/kg/injection, schedule: Q04DX002 (ip), vehicle: saline 102 % of control | dose: 50.0 mg/kg/injection, schedule: Q04DX002 (ip), vehicle: saline 98 % of control | dose: 100.0 mg/kg/injection, schedule: Q04DX002 (ip), vehicle: saline 99 % of control and 97 % of control

O=C(O)CC[S-].[Ag+]
inactive: [4] 100 % of control | [5] 100 % of control | [6] 95 % of control

N#C/C(=N\Nc1ccc(Cl)cc1)C(=O)C1CC1
inactive: dose: 15.0 mg/kg/injection, schedule: Q01DX005 (ip), vehicle: Klucel (hydroxypropylcellulose) (HPC) 105 % of control | dose: 30.0 mg/kg/injection, schedule: Q01DX005 (ip), vehicle: Klucel (hydroxypropylcellulose) (HPC) 98 % of control | [7] 99 % of control and 91 % of control

S=C(Oc1ccccc1)SSC(=S)Oc1ccccc1
inactive: dose: 25.0 mg/kg/injection, schedule: Q04DX003 (ip), vehicle: saline with Tween-80 114 % of control | dose: 50.0 mg/kg/injection, schedule: Q04DX003 (ip), vehicle: saline with Tween-80 104 % of control | dose: 100.0 mg/kg/injection, schedule: Q04DX003 (ip), vehicle: DMSO 90 % of control | dose: 100.0 mg/kg/injection, schedule: Q04DX003 (ip), vehicle: saline with Tween-80 96 % of control | [1] 107 % of control

CCc1nc(N)nc(N)c1-c1ccc(N2CCNCC2)cc1
inactive: dose: 50.0 mg/kg/injection, schedule: Q01DX005 (ip), vehicle: Klucel (hydroxypropylcellulose) (HPC) 96 % of control | dose: 100.0 mg/kg/injection, schedule: Q01DX005 (ip), vehicle: Klucel (hydroxypropylcellulose) (HPC) 95 % of control | dose: 200.0 mg/kg/injection, schedule: Q01DX005 (ip), vehicle: Klucel (hydroxypropylcellulose) (HPC) 101 % of control

CC(C)(C)C(=O)OCCOCCOC(=O)c1ccccc1
inactive: [8] 95 % of control | [9] 104 % of control | [10] 102 % of control

c1ccc(Nc2ccc(CN3CCCC3)cc2)cc1
inactive: [7] 107 % of control | dose: 120.0 mg/kg/injection, schedule: Q01DX005 (ip), vehicle: Klucel (hydroxypropylcellulose) (HPC) 107 % of control | dose: 240.0 mg/kg/injection, schedule: Q01DX005 (ip), vehicle: Klucel (hydroxypropylcellulose) (HPC) 107 % of control

O=C(O)c1ccc(OCCOc2ccccc2)cc1
inactive: dose: 50.0 mg/kg/injection, schedule: Q01DX001 (ip), vehicle: saline with Tween-80 100 % of control | dose: 100.0 mg/kg/injection, schedule: Q01DX001 (ip), vehicle: saline with Tween-80 100 % of control | dose: 200.0 mg/kg/injection, schedule: Q01DX001 (ip), vehicle: saline with Tween-80 90 % of control

Cc1cc(NC(=O)Nc2ccc(C3=NCCN3)cc2)ccc1NC(=O)Nc1ccc(C2=NCCN2)cc1
inactive: [4] 100 % of control | [5] 104 % of control | [6] 109 % of control

CC(=O)c1ccc(C)cc1C
inactive: [2] 98 % of control | [3] 98 % of control | [11] 104 % of control and 110 % of control | [12] 118 % of control

CC(C)CC(=O)O[C@@H]1OC=C(COC2OC(CO)C(O)C(O)C2O)[C@H]2CC(=O)[C@@H](C)[C@@H]12 (some centres undefined)
inactive: dose: 8.0 mg/kg/injection, schedule: Q01DX005 (ip), vehicle: saline 118 % of control | dose: 16.0 mg/kg/injection, schedule: Q01DX005 (ip), vehicle: saline 116 % of control | dose: 32.0 mg/kg/injection, schedule: Q01DX005 (ip), vehicle: saline 107 % of control | dose: 64.0 mg/kg/injection, schedule: Q01DX005 (ip), vehicle: saline 110 % of control

Cc1ccc(NC(=S)SCc2ccc(Cl)cc2)cc1Br
inactive: [8] 105 % of control and 123 % of control | dose: 50.0 mg/kg/injection, schedule: Q01DX009 (ip), vehicle: suspension in saline 109 % of control | [9] 114 % of control | dose: 100.0 mg/kg/injection, schedule: Q01DX009 (ip), vehicle: suspension in saline 104 % of control | [10] 121 % of control and 122 % of control | dose: 200.0 mg/kg/injection, schedule: Q01DX009 (ip), vehicle: suspension in saline 90 % of control

COC1/C=C\OC2(C)Oc3c(C)c(O)c4c(O)c(c5[nH]c(-c6ccccc6)nc5c4c3C2=O)NC(=O)/C(C)=C\C=C\C(C)C(O)C(C)C(O)C(C)C(OC(C)=O)C1C (centres undefined)
inactive: dose: 25.0 mg/kg/injection, schedule: Q01DX009 (ip), vehicle: Klucel (hydroxypropylcellulose) (HPC) 106 % of control | [8] 100 % of control | [9] 88 % of control

CCOC(=O)CCC(NC(=O)OCCNCCCl)C(=O)OCC (centres undefined)
inactive: [13] 86 % of control | [14] 86 % of control | dose: 400.0 mg/kg/injection, schedule: Q01DX009 (ip), vehicle: saline 95 % of control

N/C(=N\OC(=O)Nc1ccc(Cl)c(Cl)c1)c1ccccc1
inactive: dose: 50.0 mg/kg/injection, schedule: Q01DX009 (ip), vehicle: saline 101 % of control | [13] 104 % of control | [14] 100 % of control

Cc1ccc(S(=O)c2ccccc2)c(C(O)(C(F)(F)F)C(F)(F)F)c1 (centres undefined)
inactive: dose: 100.0 mg/kg/injection, schedule: Q04DX003 (ip), vehicle: Klucel (hydroxypropylcellulose) (HPC) 91 % of control | dose: 200.0 mg/kg/injection, schedule: Q04DX003 (ip), vehicle: Klucel (hydroxypropylcellulose) (HPC) 93 % of control | dose: 400.0 mg/kg/injection, schedule: Q04DX003 (ip), vehicle: Klucel (hydroxypropylcellulose) (HPC) 94 % of control

CC(C)SC1NC(=O)N(C)C1=O (centres undefined)
inactive: [3] 100 % of control | [11] 107 % of control | [12] 100 % of control

— PubChem BioAssay AID330 (DTP/NCI, 2004)
